Literature values in US20230301959A1, “COMBINATIONS OF CARNOSINE AND ZINC FOR THE TREATMENT AND PREVENTION OF VIRAL INFECTIONS” (priority 2020, published 2023).

Columns and labels:
[1] = biological target: T1, arterivirus RNA polymerase (Equine arteritis virus, UniProt P19811); conditions: in vitro
T1 sequence (P19811 1678-2370 limits assumed): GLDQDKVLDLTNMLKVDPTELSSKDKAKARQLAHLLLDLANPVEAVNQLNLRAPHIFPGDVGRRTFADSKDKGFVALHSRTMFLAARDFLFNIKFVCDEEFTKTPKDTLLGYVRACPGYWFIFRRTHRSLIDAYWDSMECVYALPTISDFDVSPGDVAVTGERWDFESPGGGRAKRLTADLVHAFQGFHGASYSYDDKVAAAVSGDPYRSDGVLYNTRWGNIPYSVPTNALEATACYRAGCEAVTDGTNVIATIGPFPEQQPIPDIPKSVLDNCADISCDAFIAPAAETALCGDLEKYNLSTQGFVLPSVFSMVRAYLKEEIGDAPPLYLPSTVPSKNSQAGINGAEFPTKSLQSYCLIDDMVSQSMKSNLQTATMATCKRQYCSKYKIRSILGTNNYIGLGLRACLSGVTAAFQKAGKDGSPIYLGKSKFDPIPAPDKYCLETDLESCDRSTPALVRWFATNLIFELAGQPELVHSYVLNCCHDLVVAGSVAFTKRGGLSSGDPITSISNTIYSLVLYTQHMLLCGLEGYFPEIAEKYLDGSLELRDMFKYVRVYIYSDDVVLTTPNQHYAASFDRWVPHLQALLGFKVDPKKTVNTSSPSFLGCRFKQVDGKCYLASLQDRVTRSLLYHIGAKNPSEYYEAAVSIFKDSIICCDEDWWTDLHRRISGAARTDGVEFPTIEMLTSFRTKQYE

[2] = system: coxsackievirus B3; conditions: infected cells
[3] = biological target: coronavirus RNA polymerase (Severe acute respiratory syndrome coronavirus, UniProt P0C6X7)
[4] = biological target: T2, viral RNA-dependent RNA polymerase (RdRp) from rhinoviruses (Human rhinovirus 16, UniProt Q82122)
T2 construct: viral RNA-dependent RNA polymerase (RdRp) from rhinoviruses and hepatitis C

[5] = biological target: poliovirus 3C protease (Poliovirus type 1, UniProt P03300)
[6] = biological target: rhinovirus 3C protease (Human rhinovirus 14, UniProt P03303)
[7] = system: viral RNA-dependent RNA polymerase (RdRp) from hepatitis C
[8] = system: human rhinovirus; conditions: infected cells
[9] = dietary administration
[10] = system: Dengue and Zika virus; conditions: liver cell culture
[11] = system: H9N2 influenza virus; conditions: mouse, in vivo, po, 10 mg/kg

Sequence of poliovirus 3C protease (P03300 1566-1748 limits assumed): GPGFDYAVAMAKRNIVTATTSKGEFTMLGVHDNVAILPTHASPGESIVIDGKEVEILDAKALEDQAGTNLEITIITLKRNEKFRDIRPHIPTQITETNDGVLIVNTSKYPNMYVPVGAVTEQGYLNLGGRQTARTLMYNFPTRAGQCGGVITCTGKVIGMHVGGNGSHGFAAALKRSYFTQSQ
Sequence of rhinovirus 3C protease (P03303 1538-1719 limits assumed): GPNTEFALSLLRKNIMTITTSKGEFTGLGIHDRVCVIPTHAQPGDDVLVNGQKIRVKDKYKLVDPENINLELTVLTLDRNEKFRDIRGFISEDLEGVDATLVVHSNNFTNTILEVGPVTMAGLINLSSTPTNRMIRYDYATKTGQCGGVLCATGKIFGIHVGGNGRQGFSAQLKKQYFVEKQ
T2 sequence (Q82122 1694-2153 limits assumed): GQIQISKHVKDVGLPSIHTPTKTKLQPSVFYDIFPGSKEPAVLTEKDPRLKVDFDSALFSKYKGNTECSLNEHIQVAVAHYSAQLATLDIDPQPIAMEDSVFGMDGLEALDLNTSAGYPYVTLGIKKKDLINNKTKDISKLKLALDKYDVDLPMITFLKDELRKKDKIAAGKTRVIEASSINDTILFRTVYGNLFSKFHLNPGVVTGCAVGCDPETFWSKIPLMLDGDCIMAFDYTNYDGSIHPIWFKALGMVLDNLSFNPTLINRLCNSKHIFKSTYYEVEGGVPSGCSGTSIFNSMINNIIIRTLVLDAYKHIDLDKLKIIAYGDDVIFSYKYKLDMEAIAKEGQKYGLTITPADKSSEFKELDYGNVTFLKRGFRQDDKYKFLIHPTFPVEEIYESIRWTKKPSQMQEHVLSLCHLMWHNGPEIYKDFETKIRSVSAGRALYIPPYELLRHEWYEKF

[Zn+2] [zinc ion]
RNA polymerase activity [1]: inhibits | polyprotein processing [2]: inhibited | RNA polymerase activity [3]: inhibits | activity of RdRp [4]: inhibitory effect | protease activity [5]: inhibited | protease activity [6]: inhibited | activity of RdRp [7]: inhibitory effect | polyprotein processing [8]: inhibited

NCCC(=O)N[C@@H](Cc1cnc[nH]1)C(=O)O [carnosine, β-alanyl-L-histidine]
early atherosclerotic lesion formation [9]: prevent | renal disease [9]: attenuating | cell viability post infection [10]: ameliorate | viral genome replication [10]: significantly inhibit | levels of TNF-a, IL-1b, TLR-4 mRNA and protein [11]: significantly reduced | lung wet mass ratio [11]: decreased | myeloperoxidase activity [11]: reduced | overall mortality [11]: 43% | pathological lung lesions [11]: improvement | safety of regular administration (2-4 months, in combination with forskolin, homotaurine, vitamins B1, B2, B6, folic acid, magnesium, different age groups): safe | tolerability (2 weeks, obese patients with Type-II diabetes and Gulf-War Veterans, without any reported adverse reactions): well tolerated
